Assay results: patent US10872410B2, “Methods and apparatus for assessing immune system activity and therapeutic efficacy” (Animantis, LLC, priority 2016, dated 2020)

Tested on: cell population sets
Assay: Directional displacement of cell population sets measured with the immune platform (FIG. 7)
Type: cell-based
Settings: conditions unstimulated, LPS, TNF, effect of presence of the stimulus
Description: FIG. 7 is a graphical representation of the directional displacement of cell population sets as measured using an embodiment of the immune platform described herein. […]

Substance | directional displacement of cell population sets
tumor necrosis factor [TNF] | minimally affected
lipopolysaccharide [LPS] | greatly affected
